Source: paper PMC7764606 (Cancers, 2020)
Where two headings read alike, the source gives them in different places.

Tests used:
[1] = system: T1, recombinant AKR1B10; test: Reduction of Dau by recombinant AKR1B10 (UHPLC detection of Dau-ol); type: biochemical, Human; conditions: Dau 500 µM, relative to DMSO
T1 construct: made in house; host or cells: Escherichia coli
Protocol: (§1) Human recombinant CREs (CBR1, AKR1A1, 1B1, 1B10, 7A2, and 1C3) were produced by an Escherichia coli expression system as per methods described previously. For the inhibitory assay, each recombinant enzyme, CBR1 (1 µg), AKR1A1 (1 µg), AKR1B1 (5 µg), AKR1B10 (5 µg), AKR7A2 (3 µg), or AKR1C3 (1.5 µg) was incubated with BTK inhibitors at different concentrations (10 and 50 µM) and the substrate Dau (500 µM). For analysis using the Lineweaver-Burk plot, 1.5 µg of recombinant AKR1C3 was incubated with DMSO or BTK inhibitors (1, 5, and 10 µM) and Dau (200, 400, 600, 800, 1000, and 2000 µM). […] The incubations and further metabolite detection were further performed by using ultra-high-performance liquid chromatography (UHPLC) as per methods described previously.

[2] = system: HCT116-C3 cells; test: MTT cell viability, HCT116-C3 cells (incl. Chou-Talalay analysis); type: cell-based, human
Protocol: HCT116 cells were seeded (1.25 × 10^5 cells/well) in 24-well plates and cultured for 24 h. For the transient expression of the recombinant human AKR1C3, the cells were transfected with a pCI_AKR1C3 or empty pCI plasmid as control (previously described in a study by Hofman et al.) according to the manufacturer’s instructions (jetPRIME® Transfection Reagent; Polyplus Transfection®, Illkirch, France). For each 24-well plate, a mixture of 0.75 µL of the jetPRIME® Transfection Reagent and 0.25 µg of plasmid was incubated for 10 min at room temperature. Then, polyplexes were added to the HCT116 cells with 0.5 mL of fresh DMEM supplemented with 10% FBS and incubated for 24 h (37 °C, 5% CO2). The expression of recombinant AKR1C3 was verified by western blotting as per methods described previously.
The synergistic effect of BTK inhibitors on Dau cytotoxicity was evaluated in transfected HCT116 and A549 cells by IC50 determination. Twenty-four hours prior to the experiment, transfected HCT116 cells (8 × 10^3 cells/well) or A549 cells (5 × 10^3 cells/well) were seeded in 96-well plates. The cell culture medium was replaced with fresh medium containing increasing amounts of Dau (final concentrations: 0.01, 0.05, 0.1, 0.25, 0.5, 0.75, 1, and 10 µM) with or without BTK inhibitors (final concentrations: 1, 5, and 10 µM). After 72 h of incubation under standard conditions (37 °C, 5% CO2), cell viability was assessed by MTT (Sigma-Aldrich, Prague, Czech Republic) assay. For this, 50 µL of the MTT solution (3 mg/mL) was added to each well and incubated for 30 min. The supernatant was collected, and the cell monolayers were dissolved in 100 µL of DMSO. The absorbance was measured at 570 and 690 nm by a microplate reader Infinite M200 (Tecan, Salzburg, Austria), and the background values at 690 nm were subtracted from the absorbance obtained at 570 nm. The half-maximal inhibitory concentrations (IC50) were calculated using GraphPad Prism 8.1.2. The drug combination pharmacodynamics were determined by the Chou-Talalay method using the CompuSyn ver. 3.0.1 software (ComboSyn Inc., Paramus, NJ, USA).

[3] = system: A549 cells; test: Intracellular metabolism of Dau in A549 cells; type: cell-based, human; conditions: 5 h
Protocol: After transfection of HCT116 cells or seeding of A549 cells (25 × 10^3 cells/well) in 24-well plates for 24 h, the medium was harvested and replaced with DMEM supplemented with 10% FBS containing 1 µM daunorubicin, with or without increasing concentrations (1, 5, and 10 μM) of BTK inhibitors. Cells were incubated (37 °C, 5% CO2) for 2.5 and 5 h (transfected HCT116) or only 5 h (A549). Then, the medium was collected and the cells were lysed in lysis buffer (25 mM Tris, 150 mM NaCl, and 1% Triton X-100, pH 7.8) for 15 min at room temperature. The collected medium was combined with cell lysate for further extraction and analysis of metabolites, as per methods described previously.

[4] = recommended dose 200 mg/day, cited from earlier work
[5] = biological target: T2, recombinant AKR1C3 (Homo sapiens, UniProt P42330); test: Reduction of Dau by recombinant AKR1C3 (UHPLC detection of Dau-ol); type: biochemical; conditions: for reduction of AKR1C3 activity (Dau reduction): Dau 500 µM, relative to DMSO; for Ki: read-out: Ki^app (Morrison equation for tight-binding inhibitors)
T2 construct: made in house; host or cells: Escherichia coli
T2 sequence (P42330 1-323): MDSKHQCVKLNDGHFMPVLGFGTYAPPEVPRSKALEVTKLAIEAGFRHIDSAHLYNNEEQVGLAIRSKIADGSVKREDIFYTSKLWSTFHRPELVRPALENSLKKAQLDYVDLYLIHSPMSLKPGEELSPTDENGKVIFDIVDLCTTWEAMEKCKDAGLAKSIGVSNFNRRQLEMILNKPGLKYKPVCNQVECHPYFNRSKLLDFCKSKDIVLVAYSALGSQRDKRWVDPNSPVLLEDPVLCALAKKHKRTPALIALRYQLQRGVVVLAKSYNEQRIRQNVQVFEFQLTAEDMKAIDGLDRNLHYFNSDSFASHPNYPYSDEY
Protocol: as §1

[6] = system: AKR1C3 expression in A549 cells; test: AKR1C3 protein levels in A549 cells by western blotting; type: cell-based, human; conditions: 1, 5 and 10 µM, 72 h, western blot relative to β-actin
Protocol: A549 cells were incubated with DMSO or BTK inhibitors (1, 5, and 10 µM) for 72 h, and then total protein was extracted for analysis of AKR1C3 expression by western blotting (WB) as per methods described previously. A representative WB is shown for IBR (A) and ACA (B) incubations, and bars represent AKR1C3 protein levels as determined by densitometry relative to β-actin (n = 3, mean ± SD). Uncropped images from WB are available in Figure S1 in the Supplementary Materials. On the other hand, HCT116-EV and HCT116-C3 cells were treated with increasing concentrations of IBR (C) and ACA (D) for 72 h, and their viability was assessed by MTT assay. Graphs represent a comparison of the dose-response curves for percentages of cell viability in each cell line (n = 6, mean ± SD).

[7] = HCT116-C3, BTK-inhibitor 5 µM + Dau 0.25 µM
[8] = HCT116-C3, BTK-inhibitor 10 µM + Dau 0.25 µM

IC50 ([2]; Homo sapiens, HCT116-C3, 72 h MTT, read-out: IC50 of BTK inhibitor alone (cell viability)): 32.2 µM | reduction of AKR1C3 activity (Dau reduction) ([5]; 10 µM BTK inhibitor): 89.55% ± 4% | reduction of AKR1C3 activity (Dau reduction) ([5]; 50 µM BTK inhibitor): 96.28% ± 1.58% | Ki ([5]; AKR1C3 0.005 mg/mL (0.135 μM)): 451 nM | Ki ([5]; AKR1C3 0.015 mg/mL (0.405 μM)): 521 nM | Ki ([5]; AKR1C3 0.030 mg/mL (0.811 μM)): 566 nM | mode of inhibition (Lineweaver-Burk plot) ([5]; recombinant AKR1C3 with increasing Dau): non-competitive/mixed
Structure (SMILES): CC#CC(=O)N1CCC[C@H]1c1nc(-c2ccc(C(=O)Nc3ccccn3)cc2)c2c(N)nccn12 [Acalabrutinib, acalabrutinib]
inhibition of AKR1B10 activity (Dau reduction) ([1]; 10 µM BTK inhibitor): did not show significant inhibition | inhibition of AKR1B10 activity (Dau reduction) ([1]; 50 µM BTK inhibitor): 9.36% ± 2.53% | Dose reduction index for Dau [2, 7]: 1.38 ± 0.37 | Fraction affected (Fa %) [2, 7]: 34.59 ± 5.75% | Fraction affected (Fa %) ([2]; HCT116-C3, BTK-inhibitor 5 µM + Dau 0.50 µM): 68.43 ± 1.41% | Fraction affected (Fa %) ([2]; HCT116-C3, BTK-inhibitor 5 µM + Dau 0.75 µM): 79.88 ± 0.40% | Fraction affected (Fa %) ([2]; HCT116-C3, BTK-inhibitor 5 µM + Dau 1.00 µM): 86.61 ± 1.29% | Dose reduction index for Dau [2, 8]: 1.77 ± 0.75 | Fraction affected (Fa %) [2, 8]: 40.91 ± 11.4% | Fraction affected (Fa %) ([2]; HCT116-C3, BTK-inhibitor 10 µM + Dau 0.50 µM): 77.47 ± 0.69% | Fraction affected (Fa %) ([2]; HCT116-C3, BTK-inhibitor 10 µM + Dau 0.75 µM): 87.59 ± 1.02% | Fraction affected (Fa %) ([2]; HCT116-C3, BTK-inhibitor 10 µM + Dau 1.00 µM): 91.62 ± 0.29% | relative resistance (RR) ([2]; IC50 in HCT116-C3 divided by IC50 in HCT116-EV): 0.97 | reduction of intracellular metabolism of Dau ([3]; 1 µM BTK inhibitor + 1 µM Dau): 12.13% ± 5.19% | reduction of intracellular metabolism of Dau ([3]; 5 µM BTK inhibitor + 1 µM Dau): 34.32% ± 7.09% | reduction of intracellular metabolism of Dau ([3]; 10 µM BTK inhibitor + 1 µM Dau): 44.24% ± 9.06% | approximate Cmax [4]: ~825 ng/mL | Cmax ([4]; read-out: approximate Cmax): ~1800 nM | effect on expression (protein levels) of AKR1C3 [6]: negligible or absence of effects
